Data taken from US12594276B2, “Inhibitors of human immunodeficiency virus replication” (ViiV Healthcare UK (No.5) Limited, priority 2024, dated 2026).
Where two headings read alike, the source gives them in different places.

Assays:
[1] = Compound cytotoxicity, XTT-based colorimetric assay; type: cell-based; conditions: human
In short: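 Follows the antiviral assay procedure, but with uninfected MT2 cells. On day 4, cell viability is measured by XTT-based colorimetry, giving CC50 values.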

[2] = test system: recombinant NL4-3 virus (nef section replaced with Renilla luciferase gene) in MT-2 cells; assay: HIV cell culture assay (antiviral activity, luciferase readout); type: cell-based; conditions: Renilla, NL43, MT-2 cells infected for 4-5 days with recombinant NL4-3 Renilla luciferase virus
In short: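 The reporter virus was produced by transfecting 293T cells with the NL4-3 nef/Renilla luciferase proviral clone. MT-2 cells were infected for 4–5 days with serial compound dilutions present. Luciferase was read with a live-cell substrate, and EC50 came from the exponential median-effect equation.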

[3] = uninfected MT2 cells, day 4, XTT, read-out: CC50

| Structure (SMILES) | CC50 at 4 days [1] [nM] | EC50 [2] [nM] | CC50 at 4 days [1, 3] [nM] |
| --- | --- | --- | --- |
| Cc1cc(C2CCC(F)(F)CC2)nc2nc([C@H](Cc3cc(F)cc(F)c3)NC(=O)Cn3nc(C4CC4)c4c3C[C@@H]3C[C@H]43)n(-c3ccc(Cl)c4c(NS(C)(=O)=O)nn(CCN5[C@@H]6CC[C@H]5COC6)c34)c(=O)c12 (atropisomer, axis not shown; (P)) [Example 6, N-[(1S)-1-[(3P)-3-(4-chloro-3-methanesulfonamido-1-{2-[(1R,5S)-3-oxa-8-azabicyclo[3.2.1]octan-8-yl]ethyl}-1H-indazol-7-yl)-7-(4,4-difluorocyclohexyl)-5-methyl-4-oxo-3H,4H-pyrido[2,3-d]pyrimidin-2-yl]-2-(3,5-difluorophenyl)ethyl]-2-[(2S,4S)-9-cyclopropyl-7,8-diazatricyclo[4.3.0.0^2,^4]nona-1(6),8-dien-7-yl]acetamide] | > 50 | 0.006 | – |
| Cc1cc(C2CCC(F)(F)CC2)nc2nc([C@H](Cc3cc(F)cc(F)c3)NC(=O)Cn3nc(C4CC4)c4c3C[C@@H]3C[C@H]43)n(-c3ccc(Cl)c4c(NS(C)(=O)=O)nn(CCN5C[C@H](F)C[C@H](F)C5)c34)c(=O)c12 (atropisomer, axis not shown; (P)) [Example 1, N-[(1S)-1-[(3P)-3-(4-chloro-1-{2-[(3R,5S)-3,5-difluoropiperidin-1-yl]ethyl}-3-methanesulfonamido-1H-indazol-7-yl)-7-(4,4-difluorocyclohexyl)-5-methyl-4-oxo-3H,4H-pyrido[2,3-d]pyrimidin-2-yl]-2-(3,5-difluorophenyl)ethyl]-2-[(2S,4S)-9-cyclopropyl-7,8-diazatricyclo[4.3.0.0^2,^4]nona-1(6),8-dien-7-yl]acetamide] | – | 0.009 | > 50 |
| COCCCn1nc(NS(C)(=O)=O)c2c(Cl)ccc(-n3c([C@H](Cc4cc(F)cc(F)c4)NC(=O)Cn4nc(C(F)F)c5c4C(F)(F)[C@@H]4C[C@H]54)nc4nc(C5CCC(F)(F)CC5)cc(NCC5(F)CCOCC5)c4c3=O)c21 (atropisomer, axis not shown; (P)) [Example 484, N-[(1S)-1-[(3P)-3-[4-chloro-3-methanesulfonamido-1-(3-methoxypropyl)-1H-indazol-7-yl]-7-(4,4-difluorocyclohexyl)-5-{[(4-fluorooxan-4-yl)methyl]amino}-4-oxo-3H,4H-pyrido[2,3-d]pyrimidin-2-yl]-2-(3,5-difluorophenyl)ethyl]-2-[(2S,4R)-9-(difluoromethyl)-5,5-difluoro-7,8-diazatricyclo[4.3.0.0^2,^4]nona-1(6),8-dien-7-yl]acetamide] | – | 0.006 | > 20 |
| Cc1cc(C2CCC(F)(F)CC2)nc2nc([C@H](Cc3cc(F)cc(F)c3)NC(=O)Cn3nc(C4CC4)c4c3C[C@@H]3C[C@H]43)n(-c3ccc(Cl)c4c(NS(C)(=O)=O)nn(C[C@H](C)N5CC(C)(C)OC(C)(C)C5)c34)c(=O)c12 (relative stereo) [Example 714, N-[(1S)-1-[(3P)-3-{4-chloro-3-methanesulfonamido-1-[(2S)-2-(2,2,6,6-tetramethylmorpholin-4-yl)propyl]-1H-indazol-7-yl}-7-(4,4-difluorocyclohexyl)-5-methyl-4-oxo-3H,4H-pyrido[2,3-d]pyrimidin-2-yl]-2-(3,5-difluorophenyl)ethyl]-2-[(2R*,4R*)-9-cyclopropyl-7,8-diazatricyclo[4.3.0.0^2,4]nona-1(6),8-dien-7-yl]acetamide] | – | 0.024 | > 20 |
| Cc1cc(C2CCC(F)(F)CC2)nc2nc([C@H](Cc3cc(F)cc(F)c3)NC(=O)Cn3nc(C4CC4)c4c3C[C@@H]3C[C@H]43)n(-c3ccc(Cl)c4c(NS(C)(=O)=O)nn(CCN5CCCC(F)(F)CC5)c34)c(=O)c12 (atropisomer, axis not shown; (P)) [Example 3, N-[(1S)-1-[(3P)-3-{4-chloro-1-[2-(4,4-difluoroazepan-1-yl)ethyl]-3-methanesulfonamido-1H-indazol-7-yl}-7-(4,4-difluorocyclohexyl)-5-methyl-4-oxo-3H,4H-pyrido[2,3-d]pyrimidin-2-yl]-2-(3,5-difluorophenyl)ethyl]-2-[(2S,4S)-9-cyclopropyl-7,8-diazatricyclo[4.3.0.0^2,^4]nona-1(6),8-dien-7-yl]acetamide] | – | 0.009 | > 50 |
| COCCNc1cc(C2CCC(F)(F)CC2)nc2nc([C@H](Cc3cc(F)cc(F)c3)NC(=O)Cn3nc(C(F)F)c4c3C(F)(F)[C@@H]3C[C@H]43)n(-c3ccc(Cl)c4c(NS(C)(=O)=O)nn(CCN5C[C@@H](C)O[C@@H](C)C5)c34)c(=O)c12 (atropisomer, axis not shown; (P)) [Example 418, N-[(1S)-1-[(3P)-3-(4-chloro-1-{2-[(2R,6S)-2,6-dimethylmorpholin-4-yl]ethyl}-3-methanesulfonamido-1H-indazol-7-yl)-7-(4,4-difluorocyclohexyl)-5-[(2-methoxyethyl)amino]-4-oxo-3H,4H-pyrido[2,3-d]pyrimidin-2-yl]-2-(3,5-difluorophenyl)ethyl]-2-[(2S,4R)-9-(difluoromethyl)-5,5-difluoro-7,8-diazatricyclo[4.3.0.0^2,^4]nona-1(6),8-dien-7-yl]acetamide] | – | 0.019 | > 20 |
| Cc1cc(C2(F)CCC(F)(F)CC2)nc2nc([C@H](Cc3cc(F)cc(F)c3)NC(=O)Cn3nc(C(F)(F)F)c4c3C[C@@H]3C[C@H]43)n(-c3ccc(Cl)c4c(NS(C)(=O)=O)nn(CCN5C[C@@H](C)O[C@@H](C)C5)c34)c(=O)c12 (atropisomer, axis not shown; (P)) [Example 597, N-[(1S)-1-[(3P)-3-(4-chloro-1-{2-[(2R,6S)-2,6-dimethylmorpholin-4-yl]ethyl}-3-methanesulfonamido-1H-indazol-7-yl)-5-methyl-4-oxo-7-(1,4,4-trifluorocyclohexyl)-3H,4H-pyrido[2,3-d]pyrimidin-2-yl]-2-(3,5-difluorophenyl)ethyl]-2-[(2S,4S)-9-(trifluoromethyl)-7,8-diazatricyclo[4.3.0.0^2,^4]nona-1(6),8-dien-7-yl]acetamide] | – | 0.021 | > 20 |
| Cc1cc(C2CCC(F)(F)CC2)nc2nc([C@H](Cc3cc(F)cc(F)c3)NC(=O)Cn3nc(C(F)F)c4c3C(F)(F)[C@@H]3C[C@H]43)n(-c3ccc(Cl)c4c(NS(C)(=O)=O)nn(CCN5C[C@@H](C)O[C@@H](C)C5)c34)c(=O)c12 (atropisomer, axis not shown; (P)) [Example 159, N-[(1S)-1-[(3P)-3-(4-chloro-1-{2-[(2R,6S)-2,6-dimethylmorpholin-4-yl]ethyl}-3-methanesulfonamido-1H-indazol-7-yl)-7-(4,4-difluorocyclohexyl)-5-methyl-4-oxo-3H,4H-pyrido[2,3-d]pyrimidin-2-yl]-2-(3,5-difluorophenyl)ethyl]-2-[(2S,4R)-9-(difluoromethyl)-5,5-difluoro-7,8-diazatricyclo[4.3.0.0^2,4]nona-1(6),8-dien-7-yl]acetamide] | – | 0.017 | > 50 |
| CS(=O)(=O)Nc1nn(CCN(CCC(F)(F)F)CCC(F)(F)F)c2c(-n3c([C@H](Cc4cc(F)cc(F)c4)NC(=O)Cn4nc(C(F)F)c5c4C(F)(F)[C@@H]4C[C@H]54)nc4nc(C5CCC(F)(F)CC5)ccc4c3=O)ccc(Cl)c12 (atropisomer, axis not shown; (P)) [Example 671, N-[(1S)-1-[(3P)-3-(1-{2-[bis(3,3,3-trifluoropropyl)amino]ethyl}-4-chloro-3-methanesulfonamido-1H-indazol-7-yl)-7-(4,4-difluorocyclohexyl)-4-oxo-3H,4H-pyrido[2,3-d]pyrimidin-2-yl]-2-(3,5-difluorophenyl)ethyl]-2-[(2S,4R)-9-(difluoromethyl)-5,5-difluoro-7,8-diazatricyclo[4.3.0.0^2,^4]nona-1(6),8-dien-7-yl]acetamide] | – | 0.027 | > 20 |
| Cc1cc(C2CCC(F)(F)CC2)nc2nc([C@H](Cc3cc(F)cc(F)c3)NC(=O)Cn3nc(C(F)F)c4c3C(F)(F)[C@@H]3C[C@H]43)n(-c3ccc(Cl)c4c(NS(C)(=O)=O)nn(CCN5CCOCC5)c34)c(=O)c12 (atropisomer, axis not shown; (P)) [Example 105, N-[(1S)-1-[(3P)-3-{4-chloro-3-methanesulfonamido-1-[2-(morpholin-4-yl)ethyl]-1H-indazol-7-yl}-7-(4,4-difluorocyclohexyl)-5-methyl-4-oxo-3H,4H-pyrido[2,3-d]pyrimidin-2-yl]-2-(3,5-difluorophenyl)ethyl]-2-[(2S,4R)-9-(difluoromethyl)-5,5-difluoro-7,8-diazatricyclo[4.3.0.0^2,^4]nona-1(6),8-dien-7-yl]acetamide] | – | 0.011 | > 50 |
| Cc1cc(C2(F)CCC(F)(F)CC2)nc2nc([C@H](Cc3cc(F)cc(F)c3)NC(=O)Cn3nc(C(F)F)c4c3C(F)(F)[C@@H]3C[C@H]43)n(-c3ccc(Cl)c4c(NS(C)(=O)=O)nn([C@H](C)CN5C[C@H](F)C[C@H](F)C5)c34)c(=O)c12 (atropisomer, axis not shown; (P)) [Example 711, N-[(1S)-1-[(3P)-3-{4-chloro-1-[(2R)-1-[(3R,5S)-3,5-difluoropiperidin-1-yl]propan-2-yl]-3-methanesulfonamido-1H-indazol-7-yl}-5-methyl-4-oxo-7-(1,4,4-trifluorocyclohexyl)-3H,4H-pyrido[2,3-d]pyrimidin-2-yl]-2-(3,5-difluorophenyl)ethyl]-2-[(2S,4R)-9-(difluoromethyl)-5,5-difluoro-7,8-diazatricyclo[4.3.0.0^2,^4]nona-1(6),8-dien-7-yl]acetamide] | – | 0.026 | > 20 |
